Data on nine compounds can be found in ChEMBL document CHEMBL1201862, “PubChem BioAssay data set” (2004).

Active and inactive are the calls of the source.

The target in experiment [1] is T1, Short transient receptor potential channel 4 (Mus musculus, UniProt Q9QUQ5).
T1 sequence (Q9QUQ5 whole entry): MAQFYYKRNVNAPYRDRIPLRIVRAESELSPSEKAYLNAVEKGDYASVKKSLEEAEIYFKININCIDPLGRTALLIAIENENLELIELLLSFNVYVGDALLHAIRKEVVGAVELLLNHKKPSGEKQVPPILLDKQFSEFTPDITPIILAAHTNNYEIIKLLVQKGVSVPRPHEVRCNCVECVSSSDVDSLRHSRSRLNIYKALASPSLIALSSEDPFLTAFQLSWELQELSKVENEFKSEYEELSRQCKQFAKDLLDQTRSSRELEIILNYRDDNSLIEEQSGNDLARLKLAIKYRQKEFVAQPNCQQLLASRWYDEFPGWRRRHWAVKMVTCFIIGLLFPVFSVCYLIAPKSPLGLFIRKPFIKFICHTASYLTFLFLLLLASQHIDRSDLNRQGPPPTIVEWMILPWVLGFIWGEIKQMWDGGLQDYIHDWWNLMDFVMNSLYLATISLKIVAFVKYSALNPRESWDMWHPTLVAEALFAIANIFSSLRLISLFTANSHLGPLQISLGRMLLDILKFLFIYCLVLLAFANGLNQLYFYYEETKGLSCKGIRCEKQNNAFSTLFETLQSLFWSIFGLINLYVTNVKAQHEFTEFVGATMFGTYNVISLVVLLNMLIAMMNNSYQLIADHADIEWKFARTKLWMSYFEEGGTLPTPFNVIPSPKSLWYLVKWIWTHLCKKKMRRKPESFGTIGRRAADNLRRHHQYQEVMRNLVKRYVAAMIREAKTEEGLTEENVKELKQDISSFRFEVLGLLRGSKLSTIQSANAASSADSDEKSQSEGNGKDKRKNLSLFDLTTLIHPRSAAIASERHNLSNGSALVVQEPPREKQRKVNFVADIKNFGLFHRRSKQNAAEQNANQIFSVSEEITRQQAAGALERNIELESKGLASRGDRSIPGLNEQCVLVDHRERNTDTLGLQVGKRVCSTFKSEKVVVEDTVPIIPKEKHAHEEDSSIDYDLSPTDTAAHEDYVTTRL
The experiment in a line: TRPC4 positive allosteric modulators, dose response, cell-based, HEK293 TRPC4/mu-opioid, Fluo-4 calcium, EC20 DAMGO (AID 434941).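 Also: HEK293 cells coexpressing TRPC4 and mu opioid receptor stimulated by EC20 DAMGO.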 The format is functional.

Experiment [2] can be described thus: A Cell Based Secondary Assay To Explore Cytotoxicity of Compounds that Sensitize Mycobacterium Tuberculosis to Beta-Lactam Antibiotics. Type of experiment: functional.
In the next experiment the target is Trypsin (Sus scrofa, UniProt P00761). The experiment in a line: porcine trypsin inhibitors, dose response, selectivity assay for Rce1 protease inhibitor project, biochemical, quenched peptide fluorescence, cherry-pick (AID 488789).
A further experiment deals with CAAX prenyl protease 2 (Saccharomyces cerevisiae S288c, UniProt Q03530). Type of experiment: biochemical.
A short description of a further experiment: cells. Type of experiment: functional.
The target of the next experiment is T2, fMet-Leu-Phe receptor (Homo sapiens, UniProt P21462).
T2 sequence (P21462 whole entry): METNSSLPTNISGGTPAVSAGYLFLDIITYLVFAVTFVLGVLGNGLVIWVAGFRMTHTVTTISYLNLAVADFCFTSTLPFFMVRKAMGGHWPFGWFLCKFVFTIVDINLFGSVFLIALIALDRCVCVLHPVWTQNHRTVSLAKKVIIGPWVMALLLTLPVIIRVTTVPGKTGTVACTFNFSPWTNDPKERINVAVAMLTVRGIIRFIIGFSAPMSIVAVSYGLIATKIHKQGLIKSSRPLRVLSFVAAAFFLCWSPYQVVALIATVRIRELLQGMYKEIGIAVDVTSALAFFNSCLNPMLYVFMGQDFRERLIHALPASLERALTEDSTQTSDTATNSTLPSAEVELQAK
The experiment in a line: FPR ligands, dose response (AID 519). Type of experiment: functional.

In experiment [3] the target is DNA dC->dU-editing enzyme APOBEC-3A (Homo sapiens, UniProt P31941). In words: Dose Response confirmation of small molecule APOBEC3A DNA Deaminase Inhibitors via a fluorescence-based single-stranded DNA deaminase assay. [Related pubchem assays (depositor defined):AID493011, AID493024]. The format is functional.
The target in experiment [4] is Eukaryotic translation initiation factor 4E (Mus musculus, UniProt P63073). The experiment in a line: eIF4E–eIF4G protein interaction inhibitors, dose response, biochemical, TR-FRET (AID 855).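 Also: potency for disrupting eIF4E binding to eIF4GI seen as loss of FRET.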 The format is functional.
In experiment [5] the target is DNA dC->dU-editing enzyme APOBEC-3G (Homo sapiens, UniProt Q9HC16). Type of experiment: functional.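 Also: Dose-response counterscreen measuring inhibition of APOBEC3G DNA deaminase activity, run while confirming APOBEC3A inhibitors.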
The target of experiment [6] is G-protein coupled receptor 35 (Homo sapiens, UniProt Q9HC97). The experiment in a line: GPR35 antagonists blocking zaprinast-driven arrestin recruitment, primary screen, imaging, U2OS, beta-arrestin-GFP, zaprinast agonist (AID 2058).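 Also: antagonist potency meaning inhibition of agonist-induced arrestin redistribution.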 The format is functional.
Experiment [7] deals with G-protein coupled receptor 55 (Homo sapiens, UniProt Q9Y2T6). In words: GPR55 antagonists blocking LPI-driven arrestin recruitment, primary screen, imaging, U2OS, beta-arrestin-GFP, LPI agonist (AID 2013).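 Also: antagonist potency measured as reduced agonist-driven arrestin aggregation.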 Type of experiment: functional.
The target in a further experiment is Large T antigen (Simian virus 40, UniProt P03070). The format is functional, Betapolyomavirus macacae.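 Also: Confirmatory-stage PubChem screen for compounds that inhibit SV40 T antigen.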
Another experiment concerns the target Nonstructural protein 1 (Influenza A virus, UniProt Q194T2). Type of experiment: functional, Influenza A virus (A/California/07/2009(H1N1)).
Experiment [8] has as its target T3, Endoribonuclease toxin MazF (Escherichia coli K-12, UniProt P0AE70).
T3 sequence (P0AE70 whole entry): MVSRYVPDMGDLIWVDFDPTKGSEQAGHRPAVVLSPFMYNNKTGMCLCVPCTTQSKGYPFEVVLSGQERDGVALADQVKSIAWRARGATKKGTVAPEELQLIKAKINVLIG
The experiment in a line: MazF toxin RNase activators, dose response, biochemical, fluorescence, single-stranded RNA substrate, uHTS hits (AID 588481). The format is functional.

Experiment [9] concerns the target T3, Endoribonuclease toxin MazF. In words: fluorescent RNA oligo signal without MazF, dose response, counter-screen for MazEF activator project, biochemical, fluorescence, single-stranded RNase substrate (AID 588502). The format is functional.
Experiment [10] has as its target T4, Kappa-type opioid receptor (Homo sapiens, UniProt P41145). In words: KOR agonist analogs, arrestin-GFP redistribution, SAR follow-up, imaging, image-based, set 3 (AID 488833). The format is functional.
Another experiment addresses Mu-type opioid receptor (Homo sapiens, UniProt P35372). In words: SAR Analysis of Agonists of the MOR Receptor using an Image-Based Assay - Set 3. [Related pubchem assays (depositor defined):AID1777, AID1785, AID1786, AID1966, AID2133, AID2136, AID2284, AID2285, AID2352]. The format is functional.
In experiment [11] the target is Delta-type opioid receptor (Homo sapiens, UniProt P41143). The experiment in a line: SAR Analysis of Agonists of the DOR Receptor using an Image-Based Assay - Set 3. [Related pubchem assays (depositor defined):AID1777, AID1786]. Type of experiment: functional.
Experiment [12] concerns the target T4, Kappa-type opioid receptor. The experiment in a line: SAR analysis of small molecule agonists of the kappa opioid receptor via a luminescent beta-arrestin assay - Set 3. [Related pubchem assays (depositor defined):AID1777, AID1785, AID1786, AID1966, AID2133, AID2136, AID2284, AID2500]. Type of experiment: functional.
The target of experiment [13] is T5, Tyrosine-protein phosphatase non-receptor type 7 (Homo sapiens, UniProt P35236).
T5 sequence (P35236 whole entry): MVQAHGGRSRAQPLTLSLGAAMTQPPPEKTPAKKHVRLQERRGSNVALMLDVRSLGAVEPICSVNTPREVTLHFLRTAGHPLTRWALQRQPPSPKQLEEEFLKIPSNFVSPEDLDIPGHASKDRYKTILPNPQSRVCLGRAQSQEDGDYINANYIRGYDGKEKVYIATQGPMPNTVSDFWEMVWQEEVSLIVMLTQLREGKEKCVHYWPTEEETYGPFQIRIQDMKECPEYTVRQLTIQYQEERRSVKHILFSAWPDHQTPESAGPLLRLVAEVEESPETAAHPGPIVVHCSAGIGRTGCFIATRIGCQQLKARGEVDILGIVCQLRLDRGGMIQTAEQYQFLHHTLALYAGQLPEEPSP
The experiment in a line: redox-dependent HePTP inhibition, mechanism study, biochemical, fluorescence (AID 2068). The format is functional.

Experiment [14] addresses T6, Dual specificity protein phosphatase 6 (Rattus norvegicus, UniProt Q64346).
T6 sequence (Q64346 whole entry): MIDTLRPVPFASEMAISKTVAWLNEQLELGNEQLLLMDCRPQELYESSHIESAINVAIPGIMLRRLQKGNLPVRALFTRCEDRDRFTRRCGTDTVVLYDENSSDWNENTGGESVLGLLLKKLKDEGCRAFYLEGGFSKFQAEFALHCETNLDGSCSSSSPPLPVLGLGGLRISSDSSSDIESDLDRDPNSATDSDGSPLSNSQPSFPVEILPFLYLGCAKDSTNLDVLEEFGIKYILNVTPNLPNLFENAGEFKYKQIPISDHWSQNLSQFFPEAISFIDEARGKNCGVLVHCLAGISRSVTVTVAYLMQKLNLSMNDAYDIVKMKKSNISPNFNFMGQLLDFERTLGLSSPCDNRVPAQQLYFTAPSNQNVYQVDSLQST
Type of experiment: functional.

T4 sequence (P41145 whole entry): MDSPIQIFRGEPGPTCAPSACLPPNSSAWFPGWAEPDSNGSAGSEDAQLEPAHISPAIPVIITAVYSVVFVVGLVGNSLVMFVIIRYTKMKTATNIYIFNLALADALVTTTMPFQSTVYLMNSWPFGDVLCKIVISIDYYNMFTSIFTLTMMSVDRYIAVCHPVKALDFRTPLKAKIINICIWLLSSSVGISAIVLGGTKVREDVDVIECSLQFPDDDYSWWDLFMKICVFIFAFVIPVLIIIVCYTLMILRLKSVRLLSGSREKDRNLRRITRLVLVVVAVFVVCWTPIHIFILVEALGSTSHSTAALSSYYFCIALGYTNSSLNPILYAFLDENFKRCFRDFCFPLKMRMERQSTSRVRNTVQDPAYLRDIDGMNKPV
Chain of Mu-type opioid receptor (P35372 whole entry): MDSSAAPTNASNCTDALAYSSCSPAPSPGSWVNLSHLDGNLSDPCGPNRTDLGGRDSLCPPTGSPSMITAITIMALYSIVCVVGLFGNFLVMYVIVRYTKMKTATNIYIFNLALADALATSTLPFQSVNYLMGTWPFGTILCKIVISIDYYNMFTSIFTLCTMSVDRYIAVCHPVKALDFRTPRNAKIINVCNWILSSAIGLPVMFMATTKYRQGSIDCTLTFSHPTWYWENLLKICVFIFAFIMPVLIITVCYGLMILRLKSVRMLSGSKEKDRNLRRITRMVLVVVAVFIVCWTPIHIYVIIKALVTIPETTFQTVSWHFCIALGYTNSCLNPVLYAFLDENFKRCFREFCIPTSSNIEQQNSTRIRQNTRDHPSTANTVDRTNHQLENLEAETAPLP
Chain of CAAX prenyl protease 2 (Q03530 whole entry): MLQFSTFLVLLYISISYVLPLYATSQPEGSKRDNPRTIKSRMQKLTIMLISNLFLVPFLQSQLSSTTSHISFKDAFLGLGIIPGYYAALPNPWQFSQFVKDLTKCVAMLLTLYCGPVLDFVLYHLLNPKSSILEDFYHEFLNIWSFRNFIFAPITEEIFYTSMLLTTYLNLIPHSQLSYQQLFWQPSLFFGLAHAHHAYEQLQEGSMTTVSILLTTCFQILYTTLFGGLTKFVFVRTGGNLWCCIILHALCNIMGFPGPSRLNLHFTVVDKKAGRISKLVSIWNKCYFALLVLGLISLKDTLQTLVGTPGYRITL
Chain of Delta-type opioid receptor (P41143 whole entry): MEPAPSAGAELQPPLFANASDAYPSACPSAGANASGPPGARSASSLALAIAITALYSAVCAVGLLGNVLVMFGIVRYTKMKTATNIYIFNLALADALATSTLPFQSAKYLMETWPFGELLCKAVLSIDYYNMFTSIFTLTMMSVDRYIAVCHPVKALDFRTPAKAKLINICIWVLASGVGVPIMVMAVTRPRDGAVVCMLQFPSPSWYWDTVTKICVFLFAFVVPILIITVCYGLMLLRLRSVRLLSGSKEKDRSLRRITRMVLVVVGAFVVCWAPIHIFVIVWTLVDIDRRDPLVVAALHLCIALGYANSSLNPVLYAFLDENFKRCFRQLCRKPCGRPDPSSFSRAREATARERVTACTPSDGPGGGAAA
Chain of Trypsin (P00761 whole entry): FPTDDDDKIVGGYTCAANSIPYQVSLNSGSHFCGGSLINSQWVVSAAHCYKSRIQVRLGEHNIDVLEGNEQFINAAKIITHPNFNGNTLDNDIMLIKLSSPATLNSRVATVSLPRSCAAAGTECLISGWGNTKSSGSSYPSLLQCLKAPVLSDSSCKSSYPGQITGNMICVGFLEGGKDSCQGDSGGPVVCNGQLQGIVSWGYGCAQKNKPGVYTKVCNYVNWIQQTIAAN
Chain of Eukaryotic translation initiation factor 4E (P63073 whole entry): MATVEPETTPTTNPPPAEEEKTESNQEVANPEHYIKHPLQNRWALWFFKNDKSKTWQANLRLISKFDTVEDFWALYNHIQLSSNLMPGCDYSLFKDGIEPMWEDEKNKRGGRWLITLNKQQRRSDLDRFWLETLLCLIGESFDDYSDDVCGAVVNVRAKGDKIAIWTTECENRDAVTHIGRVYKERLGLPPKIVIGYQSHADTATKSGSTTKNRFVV
Chain of Nonstructural protein 1 (Q194T2 whole entry): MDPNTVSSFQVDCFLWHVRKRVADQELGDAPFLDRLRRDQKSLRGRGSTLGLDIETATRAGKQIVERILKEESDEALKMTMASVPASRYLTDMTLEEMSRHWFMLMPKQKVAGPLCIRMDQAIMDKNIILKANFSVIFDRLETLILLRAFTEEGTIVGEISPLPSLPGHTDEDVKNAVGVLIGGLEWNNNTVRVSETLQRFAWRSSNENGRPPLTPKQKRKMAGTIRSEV
Chain of G-protein coupled receptor 55 (Q9Y2T6 whole entry): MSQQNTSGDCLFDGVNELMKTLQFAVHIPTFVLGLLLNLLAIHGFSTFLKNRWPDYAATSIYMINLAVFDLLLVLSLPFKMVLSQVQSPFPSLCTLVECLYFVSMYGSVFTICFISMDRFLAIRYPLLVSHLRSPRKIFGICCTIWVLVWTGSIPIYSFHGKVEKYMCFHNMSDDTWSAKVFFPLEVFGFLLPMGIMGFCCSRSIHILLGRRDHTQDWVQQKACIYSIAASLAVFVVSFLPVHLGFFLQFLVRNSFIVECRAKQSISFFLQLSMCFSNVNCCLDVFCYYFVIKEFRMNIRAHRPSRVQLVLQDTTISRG
Chain of Large T antigen (P03070 whole entry): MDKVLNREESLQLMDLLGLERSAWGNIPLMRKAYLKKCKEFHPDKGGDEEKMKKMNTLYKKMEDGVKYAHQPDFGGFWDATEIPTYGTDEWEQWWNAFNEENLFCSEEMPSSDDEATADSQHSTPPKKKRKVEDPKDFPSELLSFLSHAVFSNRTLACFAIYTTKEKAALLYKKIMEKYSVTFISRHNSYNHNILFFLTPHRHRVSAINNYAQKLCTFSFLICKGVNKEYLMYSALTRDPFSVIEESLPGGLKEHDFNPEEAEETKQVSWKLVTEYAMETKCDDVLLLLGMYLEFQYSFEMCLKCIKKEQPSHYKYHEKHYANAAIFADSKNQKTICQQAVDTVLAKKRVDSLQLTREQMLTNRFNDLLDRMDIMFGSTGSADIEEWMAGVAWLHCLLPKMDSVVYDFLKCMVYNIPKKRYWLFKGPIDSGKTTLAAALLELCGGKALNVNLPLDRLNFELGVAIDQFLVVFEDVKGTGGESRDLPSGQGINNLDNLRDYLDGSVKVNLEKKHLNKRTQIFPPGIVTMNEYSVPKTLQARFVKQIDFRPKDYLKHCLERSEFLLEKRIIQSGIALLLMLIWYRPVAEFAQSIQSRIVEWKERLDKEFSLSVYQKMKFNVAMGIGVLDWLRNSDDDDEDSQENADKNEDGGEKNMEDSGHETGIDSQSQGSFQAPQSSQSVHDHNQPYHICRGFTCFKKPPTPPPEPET
Chain of DNA dC->dU-editing enzyme APOBEC-3G (Q9HC16 whole entry): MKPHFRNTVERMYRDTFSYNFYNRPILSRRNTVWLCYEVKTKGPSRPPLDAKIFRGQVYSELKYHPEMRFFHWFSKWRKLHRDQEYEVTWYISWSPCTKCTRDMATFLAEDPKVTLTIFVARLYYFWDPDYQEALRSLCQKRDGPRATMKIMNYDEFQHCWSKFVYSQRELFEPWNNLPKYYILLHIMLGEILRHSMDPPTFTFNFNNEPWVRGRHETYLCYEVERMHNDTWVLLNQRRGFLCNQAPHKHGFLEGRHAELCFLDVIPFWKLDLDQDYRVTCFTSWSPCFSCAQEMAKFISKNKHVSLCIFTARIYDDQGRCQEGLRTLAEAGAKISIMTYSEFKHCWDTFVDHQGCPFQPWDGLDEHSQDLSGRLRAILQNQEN
Chain of DNA dC->dU-editing enzyme APOBEC-3A (P31941 whole entry): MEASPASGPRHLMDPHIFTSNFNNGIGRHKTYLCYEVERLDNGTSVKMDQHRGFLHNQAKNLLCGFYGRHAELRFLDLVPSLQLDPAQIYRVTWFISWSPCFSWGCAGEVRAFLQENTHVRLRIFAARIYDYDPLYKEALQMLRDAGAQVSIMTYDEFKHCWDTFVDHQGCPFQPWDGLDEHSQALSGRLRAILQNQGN
Chain of G-protein coupled receptor 35 (Q9HC97 whole entry): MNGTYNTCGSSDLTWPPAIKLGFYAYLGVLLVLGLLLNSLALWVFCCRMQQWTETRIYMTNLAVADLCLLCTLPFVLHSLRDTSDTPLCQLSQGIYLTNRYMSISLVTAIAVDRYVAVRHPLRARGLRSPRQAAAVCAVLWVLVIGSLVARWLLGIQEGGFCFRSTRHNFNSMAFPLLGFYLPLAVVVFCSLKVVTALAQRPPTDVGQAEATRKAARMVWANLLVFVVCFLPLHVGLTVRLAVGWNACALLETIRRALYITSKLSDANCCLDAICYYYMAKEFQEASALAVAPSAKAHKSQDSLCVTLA

With `CCN1CCN(Cc2cc(Br)ccc2O)CC1`, the EC50 in experiment [1] was 0.21 µM (active).

As for `Cc1cccc(Cn2c(N3CCN(c4ccccc4)CC3)nc3c2c(=O)n(C)c(=O)n3C)c1`, the CC50 in experiment [2] was > 40 µM (active). In addition, the EC50 in experiment [1] is 0.84 µM (active).

As for `CCCc1cc(O)n2nc(C)c(-c3ccccc3)c2n1`, the figures for the AC50 at Trypsin and on CAAX prenyl protease 2 were 5.36 µM (active) and 22.3 µM (active), respectively. In addition, the IC50 in “cells” was 46.5 µM (active). For the same compound, at fMet-Leu-Phe receptor, the Ki is > 66.7 µM (inactive).

Take `COc1ccc2cc(C(=O)C3CCCN(C(=O)CCc4cnn(C)c4)C3)ccc2c1` (stereo not drawn): the AC50 on Trypsin is 11.5 µM (active); on CAAX prenyl protease 2 it was 19.5 µM (active).

`O=C(C[n+]1c2n(c3ccc(C(F)(F)F)cc31)CCCCC2)Nc1ccccc1`: the results for the IC50 in experiment [3], in [4] and in [5] were 2.76 µM (active), > 64 µM (inactive) and 3.79 µM (active), respectively.

With `CN(C)/C=C/C=C/C=C/C1=[N+](C)c2ccccc2C1(C)C`, the IC50 is 1.82 µM (active) in [6], 2.05 µM (active) in experiment [7], 27.8 µM (active) at Large T antigen and 5.75 µM (active) on Nonstructural protein 1. The values for the EC50 in [8] and in experiment [9] were > 99 µM (inactive) and 89.5 µM (inactive), respectively.

With `Cc1ccccc1CSc1nnc(-c2ccccn2)n1Cc1ccco1`, the EC50 in [10] is 28.7 µM (inactive); at Mu-type opioid receptor, > 32 µM (inactive); in [11] it was > 64 µM (inactive); in [12] it was 17.7 µM (inactive).

Consider `CCN1CCN(C(=S)c2ccc(O)c(OC)c2)CC1`, for which the IC50 in experiment [13] is 74.5 µM (active); in experiment [14] it was > 100 µM (inactive).

With `Cc1c(CSc2nnc(-c3ccccn3)n2Cc2cccs2)cccc1[N+](=O)[O-]`, the EC50 in experiment [10] is 4.15 µM (active); at Mu-type opioid receptor, > 32 µM (inactive); in [11], > 32 µM (inactive); in [12], 5.82 µM (active).
